The test system of series [1] is Mycobacterium avium. The series is described as follows: Antimycobacterial activity against Mycobacterium avium ssp. avium ATCC 15769 harboring pSMT1 carrying luxAB gene after 6 days by luminescence based serial dilution method. The class given is functional, Mycobacterium avium subsp. avium. The following applies: ATCC 15769, 144 h.
Series [2] is described as follows: Cytotoxicity against human MRC5 cells assessed as reduction in cell viability after 24 hrs by neutral red uptake assay. Type of series: cell-based.
The subject of series [3] is Mycolicibacterium smegmatis. The series is described as follows: Antimycobacterial activity against Mycobacterium smegmatis MC2 155 harboring pSMT1 carrying luxAB gene after 6 days by luminescence based serial dilution method. The following applies: str. MC2 155, 144 h. Type of series: functional.
The test system of series [4] is Mycobacterium avium. The experiment in a line: Antimycobacterial activity against Mycobacterium avium ssp. paratuberculosis ATCC 19698 harboring pSMT1 carrying luxAB gene after 6 days by luminescence based serial dilution method. The class given is functional, Mycobacterium avium subsp. paratuberculosis. The following applies: ATCC 19698, 144 h.

≈ marks a conversion by molar mass, not a printed value.

As to `O=c1c(-c2ccccc2)c(O)c2ccccc2n1-c1ccccc1`, the MIC90 (as a rule, the lowest concentration that inhibits either 90% of growth or 90% of the strains tested, depending on the study) against Mycobacterium avium [1] came out at 35.4 µM (≈ 11.1 µg/mL); in series [3] it was 10.3 µM (≈ 3.23 µg/mL); in the series on Mycobacterium avium [4], 23.8 µM (≈ 7.46 µg/mL). For the same compound, in series [2], the CC50 (usually the concentration that lowers cell viability or growth by half) at 24 h is more than 128 µM.
For the compound `COc1cccc2c(O)c(-c3ccccc3)c(O)nc12`, the MIC90 is 13 µM (≈ 3.47 µg/mL) against Mycobacterium avium [1], 15.1 µM (≈ 4.04 µg/mL) in series [3] and 18 µM (≈ 4.81 µg/mL) with Mycobacterium avium [4]. Further, the cytotoxic concentration (CC50) at 24 h in series [2] is 104 µM.
As to `Oc1nc2ccccc2c(O)c1-c1ccccc1`, the MIC90 is 19.8 µM (≈ 4.7 µg/mL) in the series with Mycobacterium avium [1], 23.5 µM (≈ 5.58 µg/mL) in series [3] and 21.2 µM (≈ 5.03 µg/mL) against Mycobacterium avium [4]. For the same compound, in series [2], the CC50 at 24 h stood at 96.5 µM.
`CC(=O)Oc1c(-c2ccccc2)c(=O)[nH]c2ccc(F)cc12`: the MIC90 was found to be 8.9 µM (≈ 2.65 µg/mL) with Mycobacterium avium [1], 9.5 µM (≈ 2.82 µg/mL) in series [3] and 7.5 µM (≈ 2.23 µg/mL) against Mycobacterium avium [4]. Further, in series [2], the CC50 at 24 h amounted to 88.4 µM.
Consider `Cc1cc2[nH]c(=O)c(-c3ccccc3)c(O)c2cc1C`, for which the MIC90 amounted to 15.7 µM (≈ 4.17 µg/mL) against Mycobacterium avium [1], 17.3 µM (≈ 4.59 µg/mL) in series [3] and 20.3 µM (≈ 5.39 µg/mL) against Mycobacterium avium [4]. Also, in series [2], the CC50 at 24 h is 61.8 µM.
With `O=c1[nH]c2c(O)cccc2c(O)c1-c1ccccc1`, the MIC90 against Mycobacterium avium [1] was found to be 17 µM (≈ 4.31 µg/mL); in series [3], 20 µM (≈ 5.07 µg/mL); against Mycobacterium avium [4], 13.7 µM (≈ 3.47 µg/mL). In series [2], the half-maximal cytotoxic concentration (CC50) at 24 h turned out to be 84.1 µM.
In the same order, the values of `O=c1[nH]c2ccc(F)cc2c(O)c1-c1ccccc1` are 8.5 µM (≈ 2.17 µg/mL), 8.4 µM (≈ 2.14 µg/mL), 11.5 µM (≈ 2.94 µg/mL) and 67.4 µM.
For `COc1ccc2[nH]c(=O)c(-c3ccccc3)c(O)c2c1`, the MIC90 against Mycobacterium avium [1] stood at 17.5 µM (≈ 4.68 µg/mL); in series [3], 15.3 µM (≈ 4.09 µg/mL); in the series with Mycobacterium avium [4], 18.6 µM (≈ 4.97 µg/mL). The cytotoxic concentration (CC50) at 24 h in series [2] is 75.4 µM.
For `O=c1[nH]c2ccc(O)cc2c(O)c1-c1ccccc1`, the MIC90 in the series on Mycobacterium avium [1] came to 15.6 µM (≈ 3.95 µg/mL); in series [3], 16.8 µM (≈ 4.25 µg/mL); in the series on Mycobacterium avium [4], 13.2 µM (≈ 3.34 µg/mL). Further, the half-maximal cytotoxic concentration (CC50) at 24 h in series [2] is more than 128 µM.
For `Cc1ccc2[nH]c(=O)c(-c3ccccc3)c(O)c2c1`, the MIC90 with Mycobacterium avium [1] was found to be 12.6 µM (≈ 3.17 µg/mL); in series [3], 19.2 µM (≈ 4.82 µg/mL); in the series with Mycobacterium avium [4] it was 13.2 µM (≈ 3.32 µg/mL). The half-maximal cytotoxic concentration (CC50) at 24 h in series [2] is more than 128 µM.
In the same order, the values of `Cc1c(O)c2ccccc2[nH]c1=O` are 18.4 µM (≈ 3.22 µg/mL), 23.2 µM (≈ 4.06 µg/mL), 14.5 µM (≈ 2.54 µg/mL) and 84.7 µM.
As for `O=c1[nH]c2cc(O)ccc2c(O)c1-c1ccccc1`, the results for the MIC90 (against Mycobacterium avium [1]; in series [3]; against Mycobacterium avium [4]) were 16.3 µM (≈ 4.13 µg/mL), 18.5 µM (≈ 4.69 µg/mL) and 15.7 µM (≈ 3.98 µg/mL), respectively. Besides, the CC50 at 24 h in series [2] came to 92.1 µM.
`COc1ccc2c(O)c(-c3ccccc3)c(=O)[nH]c2c1`: the MIC90 in the series on Mycobacterium avium [1] came to 13.8 µM (≈ 3.69 µg/mL); in series [3] it was 19.5 µM (≈ 5.21 µg/mL); against Mycobacterium avium [4] it was 16.5 µM (≈ 4.41 µg/mL). For the same compound, the CC50 at 24 h in series [2] is 59 µM.
Regarding `NNC(=O)c1ccncc1` [ISONIAZID], the MIC90 (against Mycobacterium avium [1]; in series [3]; in the series with Mycobacterium avium [4]) was less than 0.1 µM throughout.

The record behind these values is ChEMBL document CHEMBL4118082 (Eur J Med Chem, 2017).
